Several values for one entry are separate records, joined by “and”; a condition that tells them apart may be missing. Equal values may be shown once. Toxic doses and inconclusive results are not listed.
System: BDF1 mice, P388 leukemia ip, median survival T/C
Assay: NCI In Vivo Anticancer Drug Screen. Data for tumor model P388 Leukemia (intraperitoneal) in B6D2F1 (BDF1) mice
Details: endpoint: median survival time, higher = longer survival
In short: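 Steps: implant the tumour, treat one group with compound and another with vehicle, record survival, then divide treated by control.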

[1] = dose: 100.0 mg/kg/injection, schedule: Q01DX001 (ip), vehicle: saline with Tween-80
[2] = dose: 100.0 mg/kg/injection, schedule: Q04DX003 (ip), vehicle: saline with Tween-80
[3] = dose: 6.25 mg/kg/injection, schedule: Q01DX009 (ip), vehicle: saline with Tween-80
[4] = dose: 12.5 mg/kg/injection, schedule: Q01DX009 (ip), vehicle: Klucel (hydroxypropylcellulose) (HPC)
[5] = dose: 50.0 mg/kg/injection, schedule: Q01DX009 (ip), vehicle: saline with Tween-80
[6] = dose: 100.0 mg/kg/injection, schedule: Q01DX009 (ip), vehicle: saline with Tween-80
[7] = dose: 200.0 mg/kg/injection, schedule: Q01DX009 (ip), vehicle: saline with Tween-80
[8] = dose: 100.0 mg/kg/injection, schedule: Q01DX009 (ip), vehicle: Klucel (hydroxypropylcellulose) (HPC)

Which results are given for `Nc1ccc(NS(=O)(=O)Cc2ccccc2)cc1`?
T/C (dose: 25.0 mg/kg/injection, schedule: Q01DX001 (ip), vehicle: saline with Tween-80): 100 % of control; T/C (dose: 50.0 mg/kg/injection, schedule: Q01DX001 (ip), vehicle: saline with Tween-80): 100 % of control; T/C [1]: 100 % of control

With `CC(C)(C)Cc1cc(O)c2c(c1O)C(=O)c1ccccc1C2=O` as the molecule, how does the T/C (dose: 25.0 mg/kg/injection, schedule: Q04DX003 (ip), vehicle: saline with Tween-80) read?
Its T/C is 100 % of control.

And the T/C (dose: 50.0 mg/kg/injection, schedule: Q04DX003 (ip), vehicle: saline with Tween-80)?
Its T/C is 102 % of control.

What about the T/C [2] of the same molecule?
Its T/C is 95 % of control.

Which results are given for `CCOC(=O)/C=C(/C)Sc1cc(O)c2ccccc2c1O`?
T/C (dose: 1.56 mg/kg/injection, schedule: Q01DX009 (ip), vehicle: saline with Tween-80): 101 % of control and 124 % of control; T/C (dose: 3.13 mg/kg/injection, schedule: Q01DX009 (ip), vehicle: saline with Tween-80): 119 % of control and 120 % of control; T/C [3]: 124 % of control; T/C (dose: 12.5 mg/kg/injection, schedule: Q01DX009 (ip), vehicle: saline with Tween-80): 114 % of control

What does the source list for `C1CN2CCN1CC2.[Cl][Ni+][Cl]`?
T/C (dose: 0.78 mg/kg/injection, schedule: Q01DX009 (ip), vehicle: saline): 103 % of control; T/C (dose: 1.56 mg/kg/injection, schedule: Q01DX009 (ip), vehicle: saline): 92 % of control and 99 % of control; T/C (dose: 3.12 mg/kg/injection, schedule: Q01DX009 (ip), vehicle: saline): 99 % of control and 103 % of control; T/C (dose: 6.25 mg/kg/injection, schedule: Q01DX009 (ip), vehicle: saline): 100 % of control and 101 % of control

How did the T/C (dose: 100.0 mg/kg/injection, schedule: Q04DX003 (sc), vehicle: olive oil, sesame oil, peanut oil) turn out when `O=C(SCO)c1ccccc1` was run?
The T/C was 100 % of control.

And the T/C (dose: 200.0 mg/kg/injection, schedule: Q04DX003 (sc), vehicle: olive oil, sesame oil, peanut oil)?
The T/C was 110 % of control.

What about the T/C (dose: 400.0 mg/kg/injection, schedule: Q04DX003 (sc), vehicle: olive oil, sesame oil, peanut oil) of the same molecule?
The T/C was 100 % of control.

Which T/C (dose: 50.0 mg/kg/injection, schedule: Q04DX003 (ip), vehicle: Klucel (hydroxypropylcellulose) (HPC)) does the source give for `COc1cc2c3c(c1)C(=O)CCN3CCC2` here?
The T/C was 95 % of control.

And the T/C (dose: 100.0 mg/kg/injection, schedule: Q04DX003 (ip), vehicle: Klucel (hydroxypropylcellulose) (HPC))?
The T/C was 95 % of control.

What about the T/C (dose: 200.0 mg/kg/injection, schedule: Q04DX003 (ip), vehicle: Klucel (hydroxypropylcellulose) (HPC)) of the same molecule?
The T/C was 87 % of control.

What does the source list for `CC=C=CCN(C)Cc1ccccc1`?
T/C (dose: 12.5 mg/kg/injection, schedule: Q01DX009 (ip), vehicle: saline): 120 % of control; T/C (dose: 25.0 mg/kg/injection, schedule: Q01DX009 (ip), vehicle: saline): 100 % of control; T/C (dose: 50.0 mg/kg/injection, schedule: Q01DX009 (ip), vehicle: saline): 105 % of control and 109 % of control

What does the source list for `CS(=O)(=O)OCCF`?
T/C (dose: 1.5 mg/kg/injection, schedule: Q01DX009 (ip), vehicle: saline with Tween-80): 100 % of control; T/C (dose: 1.5 mg/kg/injection, schedule: Q04DX003 (ip), vehicle: saline): 104 % of control; T/C (dose: 3.0 mg/kg/injection, schedule: Q01DX009 (ip), vehicle: saline with Tween-80): 100 % of control; T/C (dose: 3.0 mg/kg/injection, schedule: Q04DX003 (ip), vehicle: saline): 109 % of control

With `CCN(CC)CCCC(C)Nc1c2ccc(Cl)cc2nc2cc(Cl)ccc12` (configuration not stated) as the molecule, how does the T/C [4] read?
Its T/C is 120 % of control.

Which T/C [5] does the source give for `ClCCOCCCl` here?
Its T/C is 115 % of control.

What about the T/C [6] of the same molecule?
Its T/C is 124 % of control.

Which results are given for `CCCCCCCCOc1cc(OC(C)=O)c2c(ccc3ccccc32)c1`?
T/C [2]: 88 % of control; T/C (dose: 200.0 mg/kg/injection, schedule: Q04DX003 (ip), vehicle: saline with Tween-80): 87 % of control; T/C (dose: 400.0 mg/kg/injection, schedule: Q04DX003 (ip), vehicle: saline with Tween-80): 88 % of control

Which results are given for `FC(F)(F)C(Cl)(Cc1ccc2ccccc2n1)C(F)(F)F`?
T/C [1]: 100 % of control; T/C (dose: 200.0 mg/kg/injection, schedule: Q01DX001 (ip), vehicle: saline with Tween-80): 100 % of control; T/C (dose: 400.0 mg/kg/injection, schedule: Q01DX001 (ip), vehicle: saline with Tween-80): 104 % of control

How did the T/C (dose: 25.0 mg/kg/injection, schedule: Q01DX009 (sc), vehicle: olive oil, sesame oil, peanut oil) turn out when `CC(=O)/C(N=Nc1ccccc1)=C(\C)O` was run?
Its T/C is 100 % of control.

And the T/C (dose: 50.0 mg/kg/injection, schedule: Q01DX009 (sc), vehicle: olive oil, sesame oil, peanut oil)?
The T/C was 96 % of control.

And the T/C (dose: 100.0 mg/kg/injection, schedule: Q01DX009 (sc), vehicle: olive oil, sesame oil, peanut oil)?
Its T/C is 112 % of control.

What does the source list for `Cc1nc2ccccc2n1C[c-]1[c-][c-][c-][c-]1.[Fe].[c-]1[c-][c-][cH-][c-]1`?
T/C [5]: 91 % of control; T/C [6]: 113 % of control; T/C [7]: 105 % of control

With `O=[N+]([O-])c1ccc(C[Se]c2ncnc3c2ncn3C2OC(CO)C(O)C2O)cc1` (configuration not stated) as the molecule, how does the T/C (dose: 12.5 mg/kg/injection, schedule: Q04DX003 (ip), vehicle: saline) read?
Its T/C is 109 % of control.

What about the T/C (dose: 25.0 mg/kg/injection, schedule: Q04DX003 (ip), vehicle: saline) of the same molecule?
Its T/C is 103 % of control.

What about the T/C (dose: 50.0 mg/kg/injection, schedule: Q04DX003 (ip), vehicle: saline) of the same molecule?
Its T/C is 96 % of control.

And the T/C (dose: 100.0 mg/kg/injection, schedule: Q04DX003 (ip), vehicle: saline)?
Its T/C is 105 % of control.

For `COc1cc2cc(c1Cl)N(C)C(=O)CC(OC(=O)C(F)(F)F)C1(C)OC1C(C)C1CC(O)(NC(=O)O1)C(OC)C=C/C=C(\C)C2` (configuration not stated), which T/C (dose: 0.8 micrograms/kg/injection, schedule: Q01DX009 (ip), vehicle: saline + alcohol) is on record?
The T/C was 110 % of control.

What about the T/C (dose: 1.5 micrograms/kg/injection, schedule: Q01DX009 (ip), vehicle: saline + alcohol) of the same molecule?
The T/C was 100 % of control.

And the T/C (dose: 1.8 micrograms/kg/injection, schedule: Q01DX009 (ip), vehicle: saline + alcohol)?
Its T/C is 107 % of control.

What about the T/C (dose: 3.1 micrograms/kg/injection, schedule: Q01DX009 (ip), vehicle: saline + alcohol) of the same molecule?
The T/C was 98 % of control and 100 % of control.

And the T/C (dose: 6.2 micrograms/kg/injection, schedule: Q01DX009 (ip), vehicle: saline + alcohol)?
Its T/C is 98 % of control and 108 % of control.

And the T/C (dose: 12.5 micrograms/kg/injection, schedule: Q01DX009 (ip), vehicle: saline + alcohol)?
Its T/C is 96 % of control and 120 % of control.

And the T/C (dose: 25.0 micrograms/kg/injection, schedule: Q01DX009 (ip), vehicle: saline + alcohol)?
The T/C was 96 % of control.

What about the T/C (dose: 50.0 micrograms/kg/injection, schedule: Q01DX009 (ip), vehicle: saline + alcohol) of the same molecule?
Its T/C is 107 % of control.

And the T/C (dose: 100.0 micrograms/kg/injection, schedule: Q01DX009 (ip), vehicle: saline + alcohol)?
The T/C was 91 % of control and 108 % of control.

And the T/C (dose: 200.0 micrograms/kg/injection, schedule: Q01DX009 (ip), vehicle: saline + alcohol)?
Its T/C is 91 % of control.

What about the T/C (dose: 400.0 micrograms/kg/injection, schedule: Q01DX009 (ip), vehicle: saline + alcohol) of the same molecule?
Its T/C is 117 % of control.

`CN1CCCC(C(=O)c2ccccc2)S1(=O)=O` (configuration not stated) was tested. Which T/C (dose: 100.0 mg/kg/injection, schedule: Q04DX002 (ip), vehicle: saline with Tween-80) did it give?
Its T/C is 104 % of control.

What about the T/C (dose: 200.0 mg/kg/injection, schedule: Q04DX002 (ip), vehicle: saline with Tween-80) of the same molecule?
Its T/C is 114 % of control.

And the T/C (dose: 400.0 mg/kg/injection, schedule: Q04DX002 (ip), vehicle: saline with Tween-80)?
The T/C was 107 % of control.

With `Cc1ccc(/C=C2\CC(C)(C)c3ccccc3C2=O)cc1` as the molecule, how does the T/C (dose: 65.0 mg/kg/injection, schedule: Q01DX009 (ip), vehicle: Klucel (hydroxypropylcellulose) (HPC)) read?
Its T/C is 90 % of control.

And the T/C [8]?
Its T/C is 87 % of control and 95 % of control.

And the T/C (dose: 400.0 mg/kg/injection, schedule: Q01DX009 (ip), vehicle: Klucel (hydroxypropylcellulose) (HPC))?
Its T/C is 100 % of control.

Which results are given for `C[N+]12CCN(CC1)CC2`?
T/C (dose: 100.0 mg/kg/injection, schedule: Q01DX009 (ip), vehicle: saline): 91 % of control; T/C (dose: 200.0 mg/kg/injection, schedule: Q01DX009 (ip), vehicle: saline): 91 % of control; T/C (dose: 400.0 mg/kg/injection, schedule: Q01DX009 (ip), vehicle: saline): 100 % of control

How did the T/C [4] turn out when `COc1ccc(OC)c(NC(=O)NC(c2ccccc2)c2ccccc2)c1` was run?
The T/C was 93 % of control.

Which results are given for `CC(=O)NC1C([Se][As](C)C)OC(COC(C)=O)C(OC(C)=O)C1OC(C)=O` (configuration not stated)?
T/C [3]: 116 % of control; T/C (dose: 25.0 mg/kg/injection, schedule: Q01DX009 (ip), vehicle: saline with Tween-80): 115 % of control

`O=C(N/N=C/c1cccc(S(=O)(=O)O)c1)c1ccncc1` was tested. Which T/C [6] did it give?
The T/C was 97 % of control.

What about the T/C [7] of the same molecule?
Its T/C is 86 % of control.

What about the T/C (dose: 400.0 mg/kg/injection, schedule: Q01DX009 (ip), vehicle: saline with Tween-80) of the same molecule?
The T/C was 94 % of control.

For `O=[N+]([O-])c1ccccc1N=N/C(Cc1ccccc1)=N\Nc1ccccc1`, which T/C [8] is on record?
Its T/C is 120 % of control.

And the T/C (dose: 200.0 mg/kg/injection, schedule: Q01DX009 (ip), vehicle: Klucel (hydroxypropylcellulose) (HPC))?
Its T/C is 115 % of control.

How did the T/C (dose: 66.0 mg/kg/injection, schedule: Q04DX003 (ip), vehicle: saline with Tween-80) turn out when `Cc1ccc(S(=O)(=O)OCCN(CCOS(=O)(=O)c2ccc(C)cc2)c2ccc(C=O)cc2)cc1` was run?
Its T/C is 191 % of control.

What about the T/C [2] of the same molecule?
The T/C was 250 % of control.

What about the T/C (dose: 150.0 mg/kg/injection, schedule: Q04DX003 (ip), vehicle: saline with Tween-80) of the same molecule?
Its T/C is 204 % of control.
